Marks after values point to notes of the source that are not given here. Where a SMILES comes first, the peptide text is derived from it. Where no end group is shown, it is not given here. The star is where a group is joined. Fmoc = O=C(OCC1c2ccccc2-c2ccccc21)*
Key:
[1] = Peptide stability in FBS by residual IP3 production; assay type: in vitro ADME, bovine; conditions: peptide 1 μM in 100% FBS, 37 °C, 0, 3, 6, 12, 24, 48, 72 h; residual activity read as IP3 production ([3H]-inositol) in HEK293 cells expressing GALR2; mean ± S.E., at least three independent experiments
Method: (§1) To investigate the effects of the modifications on proteolytic susceptibility, the functional activity of peptides that were incubated in 100% serum at 37 °C for 0, 3, 6, 12, 24, 48, and 72 h was determined via inositol 1,4,5-triphosphate (IP3) production in GALR2-expressing cells (Fig. 4A–C and Table 3). […] In addition, dAla4 and dGln14 substitutions contribute to longer longevity of the peptide in serum. In an additional experiment, we examined the degradation rates of the Qu mutant, as well as the Qu mutant with an N-terminal modification and/or dAla4 and dGln14 substitutions.
(§2) Figure 4 Stability of SPX mutants in the presence of FBS (A) Qu analogs in FBS (B) and human serum (C). Potency of Qu mutants toward GALR2 (D) and GALR3 (E). For stability of SPX mutants, peptides (1 μM) were incubated in serum for 0, 3, 6, 12, 24, 48, and 72 hrs. The remaining activities of the peptides were determined by measuring IP3 production by HEK293 cells that express GALR2 after the indicated times. IP3 production was expressed as percent change, where 100% indicates IP3 production by WT SPX incubated in FBS or human serum for 0 h. For potency of Qu mutants toward GALR2 and GALR3, the SRE-luc reporter vector and plasmid containing human GALR2 or GALR3 were transfected into HEK293 cells that stably expressed Gqi protein. Cells were then treated with increasing concentrations of mutant peptides, and the receptor activities were determined using the SRE-luc reporter system.
(§3) To evaluate the stability of SPX and its analogs in FBS or human serum, peptides were incubated at an initial concentration of 1 μM in 100% serum at 37 °C for 0, 3, 6, 12, 24, 48, and 72 hours. Residual peptide activity was then assessed by measuring IP3 in HEK293 cells expressing GALR2. For the IP3 assay, cells were seeded in 12-well plates at a density of 2.5 × 10^5 cells per well, and then the next day, cells were transiently transfected with 1 μg/well of plasmid containing GALR2 using the Lipofectamine 2000 (Invitrogen) transfection reagent. The day following transfection, cells were incubated in M199 media containing 1% FBS, 1% L-glutamine, 1% penicillin/streptomycin, and 1 μCi/well of myo-^3H inositol for 20 h. After a 30-min incubation in buffer A (140 mM NaCl, 20 mM Hepes, 4 mM KCl, 8 mM D-glucose, 1 mM MgCl2, 1 mM CaCl2, 1 mg/ml free fatty acid bovine serum albumin (BSA), and 10 mM LiCl at pH 7.2), cells were treated with the agonist for 40 min at 37 °C. Media was removed, and the reactions were terminated by addition of 1 ml of 10 mM cold formic acid to each well. The plates were stored at 4 °C for 30 min, and the extracts were then transferred into 6-ml plastic tubes containing 500 μl AG1–8X anion exchange columns (BIO-RAD). The tubes were gently mixed with a vortexer, and the supernatants were removed by aspiration. Two washes with 1 ml of distilled water were performed followed by two additional washes with 60 mM ammonium formate/5mM sodium tetraborate. Tritiated inositol was separated from the column by elution with 1 ml of 1 M ammonium formate/0.1 M formic acid, and 800 μl from the elution were taken from each tube and transferred into 6-ml scintillation vials. Then, 2 ml of scintillation cocktail solution (Ultima Gold^TM, Perkin Elmer, Waltham MA, USA) was added to each sample. The radioactivity of [^3H]-myo-inositol samples was measured using a TRI carb 3100TR liquid scintillation analyzer (Packard).

[2] = biological target: T1, human GALR3 (Homo sapiens, UniProt O60755); test: SRE-luc reporter assay, GALR3;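 also: luciferase activity read in cell lysates across rising peptide concentrations, EC50 being the agonist concentration giving half-maximal stimulation from a sigmoidal nonlinear fit, Gαqi routing Gi-coupled receptor signaling through Gq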; assay type: cell-based; conditions: HEK293-Gqi cells transfected with SRE-luc and human GALR3; 6 h ligand treatment; mean ± S.E. of at least three independent experiments; NM = not measurable; read-out: GALR3 EC50
T1 construct: host or cells: HEK293 cells stably expressing Gαqi
T1 sequence (O60755 1-368): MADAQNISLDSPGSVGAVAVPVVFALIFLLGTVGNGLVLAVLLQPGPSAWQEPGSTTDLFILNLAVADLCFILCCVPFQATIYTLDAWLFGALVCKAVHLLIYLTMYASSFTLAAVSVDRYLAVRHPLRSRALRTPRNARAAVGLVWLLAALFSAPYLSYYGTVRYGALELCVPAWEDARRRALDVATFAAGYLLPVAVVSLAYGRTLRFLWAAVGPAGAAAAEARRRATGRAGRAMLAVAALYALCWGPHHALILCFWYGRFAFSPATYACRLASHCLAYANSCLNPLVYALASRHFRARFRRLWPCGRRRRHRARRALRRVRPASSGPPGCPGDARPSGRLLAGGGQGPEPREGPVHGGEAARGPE
Method: (§4) The generated mutant SPX peptides were incubated with cells expressing GALR2 and GALR3. […] The activities of the receptors were traced using the serum-response element-driven luciferase (SRE-luc) assay system.
(§5) The SRE-luc reporter vector and plasmid containing human GALR1, GALR2, or GALR3 were transfected into HEK293 cells that stably expressed Gqi protein. Cells were then treated with increasing concentrations of mutant peptides, and the receptor activities were determined using the SRE-luc reporter system.
(§6) HEK293 cells stably expressing Gαqi, which mediates Gαi-coupled receptor activation by stimulating Gαq-dependent signaling pathways[59], were maintained in Dulbecco’s modified Eagle’s medium (DMEM) supplemented with 10% FBS, 100 U/ml penicillin G, and 100 μg/ml streptomycin (Invitrogen). Cells were seeded in 48-well plates at a density of 2 × 10^4 cells per well, one day before transfection. A mixture containing 75 ng of the SRE-luc reporter construct, 75 ng of expression plasmid, and 2 μl of Effectene reagent (Qiagen, Chatsworth, CA, USA) was prepared and added to each well according to the manufacturer’s instructions. Cells were then maintained in serum-free DMEM for 16–18 h before treatment with the ligands. Approximately 48 h after transfection, cells were treated with the respective ligands for 6 h. Cells were lysed by the addition of 100 μl lysis buffer. The luciferase activity in 50 μl of cell extract was determined by a luciferase assay system according to the standard protocol for the Synergy 2 Multi-Mode Microplate Reader (BioTek, Winooski, VT, USA).
(§7) For in vitro studies data analysis was performed by nonlinear regression with a sigmoidal dose-response. The agonist concentrations that induced half-maximal stimulation (EC50) or half-maximal inhibition of binding (IC50) were calculated with GraphPad PRISM4 software (GraphPad Software Inc., San Diego, CA, USA). […] All data are presented as mean ± S.E. of at least three independent experiments and a P value of P < 0.05 was considered statistically significant.

[3] = Peptide stability in human serum by residual IP3 production; assay type: in vitro ADME; conditions: peptide 1 μM in 100% human serum, 37 °C, 0, 3, 6, 12, 24, 48, 72 h; residual activity read as IP3 production ([3H]-inositol) in HEK293 cells expressing GALR2; mean ± S.E., at least three independent experiments
Method: as §1, §2, §3

[4] = biological target: T2, human GALR2 (Homo sapiens, UniProt O43603); test: SRE-luc reporter assay, GALR2;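 also: luciferase activity read in cell lysates after exposure to rising peptide concentrations, EC50 being the agonist level giving half-maximal stimulation from a sigmoidal nonlinear regression fit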; assay type: cell-based; conditions: HEK293-Gqi cells transfected with SRE-luc and human GALR2; 6 h ligand treatment; mean ± S.E. of at least three independent experiments; NM = not measurable; read-out: GALR2 EC50
T2 construct: host or cells: HEK293 cells stably expressing Gαqi
T2 sequence (O43603 1-387): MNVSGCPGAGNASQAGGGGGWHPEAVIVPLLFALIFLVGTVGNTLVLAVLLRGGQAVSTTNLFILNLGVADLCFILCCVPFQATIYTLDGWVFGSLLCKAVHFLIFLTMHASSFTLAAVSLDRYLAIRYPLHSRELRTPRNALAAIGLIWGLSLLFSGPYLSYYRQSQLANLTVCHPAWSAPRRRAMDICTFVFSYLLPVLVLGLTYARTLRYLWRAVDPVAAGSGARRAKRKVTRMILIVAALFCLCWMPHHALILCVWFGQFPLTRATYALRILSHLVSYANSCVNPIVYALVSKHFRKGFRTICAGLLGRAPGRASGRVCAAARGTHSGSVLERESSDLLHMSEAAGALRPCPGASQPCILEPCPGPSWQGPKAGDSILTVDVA
Method: as §4, §5, §6, §7

Row | Half-life activity (h) in FBS [1] | EC50 [2] [nM] | Half-life activity (h) in Human Serum [3] | EC50 [4] [nM] | Compound
1 | 2.6 ± 0.2 h | > 10000 | 2.0 ± 0.2 h | 55 ± 9.24 | NWTPNAALYLFGPQ-NH2 [N5A7F11P13(Qu)]
2 | 6.1 ± 0.2 ^a h |  | 4.9 ± 0.1 ^a h |  | CC(C)C[C@H](NC(=O)[C@H](C)NC(=O)[C@H](C)NC(=O)[C@H](CC(N)=O)NC(=O)[C@@H]1CCCN1C(=O)[C@@H](NC(=O)[C@H](Cc1c[nH]c2ccccc12)NC(=O)[C@H](CC(N)=O)NC(=O)OCC1c2ccccc2-c2ccccc21)[C@@H](C)O)C(=O)N[C@@H](Cc1ccc(O)cc1)C(=O)N[C@@H](CC(C)C)C(=O)N[C@@H](Cc1ccccc1)C(=O)NCC(=O)N1CCC[C@H]1C(=O)N[C@@H](CCC(N)=O)C(N)=O [Fmoc-Qu] (Fmoc-NWTPNAALYLFGPQ-NH2)
